Tests used:
[1] = test system: Spontaneously hypertensive rats (SHR); assay: Acute Efficacy in Spontaneously Hypertensive Rats (SHR), telemetry blood pressure; assay type: in vivo, rat; details: single oral gavage
Source text: Spontaneously hypertensive rats (SHR, male, Charles River) were implanted with DSI TA11PA-C40 telemetry device (Data Sciences, Inc., St. Paul, Minn.) under isoflurane or ketamine/metomidine anesthesia. The telemetry unit catheter was inserted into the descending aorta via the femoral artery and the telemetry device was implanted subcutaneously in the left flank area. Animals were allowed to recover from surgery for 14 days before the start of any studies. Blood pressure, heart rate, and activity signals from conscious, freely moving rats were recorded continuously for 30 seconds every 10 minutes. On the day prior to administration of compound, a single oral dose of vehicle (10% transcutol/20% Cremophor/70% water) was administered to all animals to establish baseline control data. The blood pressure lowering efficacy of compound (PO) or vehicle was evaluated following a single oral gavage. Data were collected as hourly averages, and changes in blood pressure were calculated by subtracting control baseline data on an hourly basis. Animals were maintained on normal diet with a 12 hour light-dark cycle.
Maximum peak decreases of systolic blood pressure (SBP) in SHR at a particular P.O. dose (mpk milligrams per kilogram) for the following representative compounds are provided. Category A=SBP in SHRs <20 mmHg; Category B=SBP in SHRs 20-40 mmHg; Category C=SBP in SHRs >40 mmHg.

sGC α1/β1 heterodimer = target: T1, sGC α1/β1 heterodimer (Homo sapiens, UniProt Q02108+Q02153); assay: Cell-Based sGC Functional Assay (CASA Assay), cGMP generation in CHO-K1/sGC cells;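 also: reference Compound A is a published heme-dependent sGC activator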; details: maximum cGMP production of Compound A set to 100% activation, read-out: % Act. (percent activation relative to Compound A)
T1 construct: expressed in transfected cells
T1 sequence (Q02108 1-690): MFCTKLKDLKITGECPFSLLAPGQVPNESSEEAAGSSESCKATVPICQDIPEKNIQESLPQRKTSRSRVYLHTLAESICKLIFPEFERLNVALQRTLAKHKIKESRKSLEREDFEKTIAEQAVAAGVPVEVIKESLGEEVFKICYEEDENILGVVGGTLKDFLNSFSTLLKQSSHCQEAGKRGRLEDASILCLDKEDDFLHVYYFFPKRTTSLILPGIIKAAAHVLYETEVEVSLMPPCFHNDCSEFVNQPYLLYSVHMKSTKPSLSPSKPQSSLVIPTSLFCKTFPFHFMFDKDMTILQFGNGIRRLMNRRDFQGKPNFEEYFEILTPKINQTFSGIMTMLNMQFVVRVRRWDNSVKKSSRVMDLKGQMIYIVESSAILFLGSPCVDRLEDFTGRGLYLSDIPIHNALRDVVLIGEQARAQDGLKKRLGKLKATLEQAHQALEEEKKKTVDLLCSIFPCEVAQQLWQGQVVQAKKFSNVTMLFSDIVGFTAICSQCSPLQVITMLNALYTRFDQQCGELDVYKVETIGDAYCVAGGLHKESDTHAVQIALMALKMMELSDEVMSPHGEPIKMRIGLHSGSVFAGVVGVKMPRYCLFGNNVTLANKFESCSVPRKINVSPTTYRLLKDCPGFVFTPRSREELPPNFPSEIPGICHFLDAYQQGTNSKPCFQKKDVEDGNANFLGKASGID
T1 sequence (Q02153 1-619): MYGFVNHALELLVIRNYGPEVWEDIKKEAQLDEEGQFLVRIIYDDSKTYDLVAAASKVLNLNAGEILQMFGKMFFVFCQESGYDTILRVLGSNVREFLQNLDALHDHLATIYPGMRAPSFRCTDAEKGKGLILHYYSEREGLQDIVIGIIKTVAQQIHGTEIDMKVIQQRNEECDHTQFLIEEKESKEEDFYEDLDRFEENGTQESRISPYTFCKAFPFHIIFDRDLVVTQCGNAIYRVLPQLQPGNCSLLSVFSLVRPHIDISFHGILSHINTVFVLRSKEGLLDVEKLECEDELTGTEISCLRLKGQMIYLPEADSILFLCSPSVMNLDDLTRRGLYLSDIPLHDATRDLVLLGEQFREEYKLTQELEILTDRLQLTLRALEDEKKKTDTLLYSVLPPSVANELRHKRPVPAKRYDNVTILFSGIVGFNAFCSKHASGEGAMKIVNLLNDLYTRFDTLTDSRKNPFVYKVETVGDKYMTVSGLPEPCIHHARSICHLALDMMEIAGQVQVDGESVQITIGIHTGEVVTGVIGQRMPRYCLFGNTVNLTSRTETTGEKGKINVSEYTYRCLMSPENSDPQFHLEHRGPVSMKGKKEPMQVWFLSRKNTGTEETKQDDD
How it was run: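 Intracellular cGMP quantified by HTRF competition after 1 h, 37 °C compound exposure, with or without 1 μM DETA-NO, in stable CHO-K1/sGC α1/β1 cells (4×10^5/mL; buffer with 0.5 mM IBMX, 5 mM MgCl2, 10 mM HEPES, 0.05% BSA; 2.5% DMSO). Activation normalized to reference Compound A maximum; 4P fit.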

Row | Compound | Maximum peak decrease of systolic blood pressure (SBP) in SHR, Cat. ([1]; P.O. 0.3 mpk) | Emax (sGC α1/β1 heterodimer) | Maximum peak decrease of systolic blood pressure (SBP) in SHR, Cat. ([1]; P.O. 3 mpk) | Maximum peak decrease of systolic blood pressure (SBP) in SHR, Cat. ([1]; P.O. 1 mpk)
1 | CC1(c2ccc(F)c(F)c2)C(=O)Nc2nc(-c3cn4ncnc4c(CCCC(F)(F)F)n3)nc(O)c21 (stereo not drawn) [Example 146B, 5-(3,4-difluorophenyl)-4-hydroxy-5-methyl-2-(8-(4,4,4-trifluorobutyl)-[1,2,4]triazolo[1,5-a]pyrazin-6-yl)-5H-pyrrolo[2,3-d]pyrimidin-6(7H)-one] | B (Category B=SBP in SHRs 20-40 mmHg) | 154% | – | –
2 | CCCc1nc(-c2nc(O)c3c(n2)NC(=O)C3(C)c2ccc(Cl)c(F)c2)cn2ncnc12 (stereo not drawn) [Example 166B, 5-(4-chloro-3-fluorophenyl)-4-hydroxy-5-methyl-2-(8-propyl-[1,2,4]triazolo[1,5-a]pyrazin-6-yl)-5H-pyrrolo[2,3-d]pyrimidin-6(7H)-one] | – | 117% | B (Category B=SBP in SHRs 20-40 mmHg) | –
3 | CC(C)Cc1nc(-c2nc(N)c3c(n2)NC(=O)[C@@]3(C)c2ccc(F)cc2)cn2ncnc12 [Example 73A, (S)-4-amino-5-(4-fluorophenyl)-2-(8-isobutyl-[1,2,4]triazolo[1,5-a]pyrazin-6-yl)-5-methyl-5,7-dihydro-6H-pyrrolo[2,3-d]pyrimidin-6-one] | – | 101% | – | B (Category B=SBP in SHRs 20-40 mmHg)
4 | CC1(c2ccc(C(F)(F)F)cc2)C(=O)Nc2nc(-c3cn4ncnc4c(CCC(F)(F)F)n3)nc(N)c21 (stereo not drawn) [Example 77B, 4-amino-5-methyl-5-(4-(trifluoromethyl)phenyl)-2-(8-(3,3,3-trifluoropropyl)-[1,2,4]triazolo[1,5-a]pyrazin-6-yl)-5H-pyrrolo[2,3-d]pyrimidin-6(7H)-one] | – | 112% | – | A (Category A=SBP in SHRs <20 mmHg)
5 | C[C@@]1(c2ccc(F)cc2)C(=O)Nc2nc(-c3cn4ncnc4c(CCC(F)(F)C(F)(F)F)n3)nc(C(N)=O)c21 [Example 177A, 5-(4-Fluorophenyl)-5-methyl-6-oxo-2-(8-(3,3,4,4,4-pentafluorobutyl)-[1,2,4]triazolo[1,5-a]pyrazin-6-yl)-6,7-dihydro-5H-pyrrolo[2,3-d]pyrimidine-4-carboxamide] | – | 168% | – | C (Category C=SBP in SHRs >40 mmHg)
6 | CC1(c2ccc(C(F)(F)F)cn2)C(=O)Nc2nc(-c3cn4ncnc4c(CCC(F)(F)F)n3)nc(N)c21 (stereo not drawn) [Example 78B, 4-amino-5-methyl-5-(5-(trifluoromethyl)pyridin-2-yl)-2-(8-(3,3,3-trifluoropropyl)-[1,2,4]triazolo[1,5-a]pyrazin-6-yl)-5H-pyrrolo[2,3-d]pyrimidin-6(7H)-one] | – | 83% | B (Category B=SBP in SHRs 20-40 mmHg) | –
7 | CCCCc1nc(-c2nc(O)c3c(n2)NC(=O)C3(C)c2ccc(Cl)c(F)c2)cn2ncnc12 (stereo not drawn) [Example 156B, 2-(8-butyl-[1,2,4]triazolo[1,5-a]pyrazin-6-yl)-5-(4-chloro-3-fluorophenyl)-4-hydroxy-5-methyl-5H-pyrrolo[2,3-d]pyrimidin-6(7H)-one] | C (Category C=SBP in SHRs >40 mmHg) | 102% | – | –
8 | Nc1nc(-c2cn3ncnc3c(CCCC(F)(F)F)n2)nc2c1C(c1ccc(C(F)F)cn1)(C1CC1)C(=O)N2 (racemic) [Example 44B, 4-amino-5-cyclopropyl-5-(5-(difluoromethyl)pyridin-2-yl)-2-(8-(4,4,4-trifluorobutyl)-[1,2,4]triazolo[1,5-a]pyrazin-6-yl)-5H-pyrrolo[2,3-d]pyrimidin-6(7H)-one] | – | 120% | – | B (Category B=SBP in SHRs 20-40 mmHg)
9 | CC1(c2ccc(Cl)c(F)c2)C(=O)Nc2nc(-c3cn4ncnc4c(CCCC(F)(F)F)n3)nc(O)c21 (stereo not drawn) [Example 138B, 5-(4-chloro-3-fluorophenyl)-4-hydroxy-5-methyl-2-(8-(4,4,4-trifluorobutyl)-[1,2,4]triazolo[1,5-a]pyrazin-6-yl)-5H-pyrrolo[2,3-d]pyrimidin-6(7H)-one] | – | 164% | – | C (Category C=SBP in SHRs >40 mmHg)
10 | CC(C)n1cc(C2(C)C(=O)Nc3nc(-c4cn5ncnc5c(CCC(F)(F)C(F)(F)F)n4)nc(N)c32)nn1 (stereo not drawn) [Example 20A, 4-amino-5-(1-isopropyl-1H-1,2,3-triazol-4-yl)-5-methyl-2-(8-(3,3,4,4,4-pentafluorobutyl)-[1,2,4]triazolo[1,5-a]pyrazin-6-yl)-5H-pyrrolo[2,3-d]pyrimidin-6(7H)-one] | – | 131% | – | C (Category C=SBP in SHRs >40 mmHg)
11 | C[C@@]1(c2ccc(F)cc2)C(=O)Nc2nc(-c3cn4ncnc4c(CCC(F)(F)F)n3)nc(O)c21 [Example 151A, (S)-5-(4-fluroophenyl)-4-hydroxy-5-methyl-2-(8-(3,3,3-trifluoropropyl)-[1,2,4]triazolo[1,5-a]pyrazin-6-yl)-5,7-dihydro-6H-pyrrolo[2,3-d]pyrimidin-6-one] | – | 120% | B (Category B=SBP in SHRs 20-40 mmHg) | –
12 | C[C@@]1(c2ccc(F)cc2)C(=O)Nc2nc(-c3cn4ncnc4c(CCC(F)(F)C(F)(F)F)n3)nc(N)c21 [Example 1A, (S)-4-Amino-5-(4-fluorophenyl)-5-methyl-2-(8-(3,3,4,4,4-pentafluorobutyl)-[1,2,4]triazolo[1,5-a]pyrazin-6-yl)-5H-pyrrolo[2,3-d]pyrimidin-6(7H)-one] | C (Category C=SBP in SHRs >40 mmHg) | 196% | – | –
13 | CC1(c2ccc(O)cn2)C(=O)Nc2nc(-c3cn4ncnc4c(CCC(F)(F)C(F)(F)F)n3)nc(N)c21 (stereo not drawn) [Example 110A, 4-Amino-5-(5-hydroxypyridin-2-yl)-5-methyl-2-(8-(3,3,4,4,4-pentafluorobutyl)-[1,2,4]triazolo[1,5-a]pyrazin-6-yl)-5,7-dihydro-6H-pyrrolo[2,3-d]pyrimidin-6-one] | – | 70% | B (Category B=SBP in SHRs 20-40 mmHg) | –
14 | CC1(c2cn(C3CC3)nn2)C(=O)Nc2nc(-c3cn4ncnc4c(CCC(F)(F)C(F)(F)F)n3)nc(N)c21 (stereo not drawn) [Example 95B, 4-Amino-5-(1-cyclopropyl-1H-1,2,3-triazol-4-yl)-5-methyl-2-(8-(3,3,4,4,4-pentafluorobutyl)-[1,2,4]triazolo[1,5-a]pyrazin-6-yl)-5H-pyrrolo[2,3-d]pyrimidin-6(7H)-one] | C (Category C=SBP in SHRs >40 mmHg) | 74% | – | –
15 | CCCCc1nc(-c2nc(N)c3c(n2)NC(=O)C3(c2ccc(F)c(F)c2)C2CC2)cn2ncnc12 (stereo not drawn) [Example 65A, 4-amino-2-(8-butyl-[1,2,4]triazolo[1,5-a]pyrazin-6-yl)-5-cyclopropyl-5-(3,4-difluorophenyl)-5H-pyrrolo[2,3-d]pyrimidin-6(7H)-one] | C (Category C=SBP in SHRs >40 mmHg) | 104% | – | –
